Test: comparative stress test of the active coating suspension (60° C., 48 hours, HPLC)
Type: physicochemical
Procedure: The chemical stability of the coating suspension was verified by a comparative stress test: micronized candersartan cilexetil as a solid, an aqueous suspension of micronized candesartan cilexetil, and aqueous suspensions of micronized candesartan cilexetil together with Opadry II 85F19250 Clear in three different ratios were stored at 60° C. for 48 hours. The percentage of the stability indicating impurity Desethyl-Candesartan cilexetil was determined via HPLC. The same batch of micronized candesartan cilexetil has been used for all samples.

Desethyl-Candesartan cilexetil, start (start, before storage): 0.11%
Desethyl-Candesartan cilexetil, 48 hours (stored at 60° C. for 48 hours): 0.41%
Compound: CCOc1nc2cccc(C(=O)OC(C)OC(=O)OC3CCCCC3)c2n1Cc1ccc(-c2ccccc2-c2nnn[nH]2)cc1 (centres unmarked) [micronized candesartan cilexetil (solid), candesartan cilexetil]

Reference: patent US9539176B2 (BAYER PHARMA AKTIENGESELLSCHAFT, priority 2012, dated 2017)
